Data: patent US20260078108A1, “SOLID FORMS OF A ROCK INHIBITOR” (REDX PHARMA PLC, priority 2022, published 2026)
pIC50: −log10 of the molar value.

Assays:
PKN1/PRK1 = PKN1/PRK1 (Homo sapiens, UniProt Q16512); experiment: Kinase panel 33P-ATP filter assay, PKN1/PRK1; assay type: biochemical; settings: HCl salt tested; ATP Conc. 15 μM (Km); read-out: Compound IC50 (nM) PKN1/PRK1
Description: (§1) The HCl salts of S enantiomer and the R enantiomer of compound A were tested against a panel of kinases.
(§2) Compounds were received as powder and resuspended to 10 mM DMSO stock. Compounds were tested in 10-dose IC50 mode with a 3-fold serial dilution starting at 10 μM. Control compound, staurosporine, was tested in 10-dose IC50 mode with 4-fold serial dilution starting at 20 μM.
(§3) Reaction Conditions: Buffer Conditions: 20 mM HEPES ((4-(2-hydroxyethyl)-1-piperazineethanesulfonic acid; pH 7.5), 10 mM MgCl2, 1 mM EGTA (Ethyleneglycol-bis(p-aminoethyl)-N,N,N′,N′-tetraacetic Acid), 0.01% Brij35, 0.02 mg/ml BSA (Bovine serum albumin), 0.1 mM Na3VO4, 2 mM DTT (Dithiothreitol), 1% DMSO. Reaction Procedure: 1. Prepare indicated substrate in freshly prepared reaction buffer. 2. Deliver required cofactors to the substrate solution above. 3. Deliver indicated kinase into the substrate solution and mix gently. 4. Deliver compounds in DMSO into the kinase reaction mixture utilizing acoustic technology (Echo550). 5. Deliver ^33P-ATP (specific activity 0.01 μCi/μl final) into the reaction mixture to initiate the reaction. 6. Incubate kinase reaction for 120 minutes at room temperature. 7. […] Data Analysis: Kinase activity data were expressed as the percent remaining kinase activity in test samples compared to vehicle (dimethyl sulfoxide) reactions. […]

PKCepsilon = target: T1, PKCepsilon (Homo sapiens, UniProt Q02156); experiment: Kinase panel 33P-ATP filter assay, PKCepsilon; assay type: biochemical; settings: HCl salt tested; ATP Conc. 10 μM (Km); read-out: Compound IC50 (nM) PKCepsilon
T1 sequence (Q02156 1-737): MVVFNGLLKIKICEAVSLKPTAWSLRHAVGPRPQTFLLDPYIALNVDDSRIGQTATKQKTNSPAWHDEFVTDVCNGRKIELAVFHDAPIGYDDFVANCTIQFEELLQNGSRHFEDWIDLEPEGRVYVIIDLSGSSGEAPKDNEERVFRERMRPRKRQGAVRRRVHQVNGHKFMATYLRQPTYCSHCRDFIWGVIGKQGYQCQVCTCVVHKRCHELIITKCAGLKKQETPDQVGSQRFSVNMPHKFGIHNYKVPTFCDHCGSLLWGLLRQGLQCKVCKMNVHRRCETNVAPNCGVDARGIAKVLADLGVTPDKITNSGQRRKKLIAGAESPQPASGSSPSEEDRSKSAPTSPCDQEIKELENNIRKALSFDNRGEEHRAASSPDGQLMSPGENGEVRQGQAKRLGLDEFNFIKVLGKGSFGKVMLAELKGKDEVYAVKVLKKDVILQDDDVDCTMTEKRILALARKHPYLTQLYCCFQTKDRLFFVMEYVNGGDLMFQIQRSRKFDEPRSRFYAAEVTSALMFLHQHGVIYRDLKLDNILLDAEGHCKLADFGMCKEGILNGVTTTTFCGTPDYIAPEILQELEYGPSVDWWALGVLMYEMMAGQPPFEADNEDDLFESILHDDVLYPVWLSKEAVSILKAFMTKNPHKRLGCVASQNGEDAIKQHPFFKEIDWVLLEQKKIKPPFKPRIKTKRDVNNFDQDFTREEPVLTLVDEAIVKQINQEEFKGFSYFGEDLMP
Description: as §1, §2, §3

M2 (h) = target: T2, M2 (h) (Homo sapiens, UniProt P08172); experiment: CEREP panel M2 (h) antagonist effect, cAMP HTRF; assay type: cell-based; settings: HCl salt tested; CHO cells, acetylcholine (300 nM)
T2 construct: expressed in transfected cells; host or cells: CHO cells
T2 sequence (P08172 1-466): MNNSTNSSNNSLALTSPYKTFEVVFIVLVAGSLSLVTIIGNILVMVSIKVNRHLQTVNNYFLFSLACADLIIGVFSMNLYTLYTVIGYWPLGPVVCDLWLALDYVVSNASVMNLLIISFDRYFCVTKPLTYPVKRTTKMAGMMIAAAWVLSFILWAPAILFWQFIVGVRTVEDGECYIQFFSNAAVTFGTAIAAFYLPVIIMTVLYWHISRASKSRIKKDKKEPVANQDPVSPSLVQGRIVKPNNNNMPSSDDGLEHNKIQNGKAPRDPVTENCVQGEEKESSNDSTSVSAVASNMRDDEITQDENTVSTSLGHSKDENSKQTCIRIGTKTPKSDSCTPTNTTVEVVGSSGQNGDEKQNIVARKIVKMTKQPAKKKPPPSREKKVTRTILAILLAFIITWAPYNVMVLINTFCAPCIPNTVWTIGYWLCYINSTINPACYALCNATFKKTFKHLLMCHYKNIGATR
From the text: (§4) The use of in vitro pharmacological screening against a diverse range of targets (receptors, ion channels, enzymes and transporters) is used to identify undesirable off-target activity that may cause adverse drug reactions in humans. Screening panels (e.g. SafetyScreen44™ Panel, Eurofins) comprise a selection of off-targets linked with known issues in humans that could hinder or halt the development of drug candidates or market withdrawal if discovered after a drug is approved. The HCl salts of the S enantiomer and the R enantiomer of compound A were tested against a panel of such targets.
(§5) The tests were carried out according to the methods described in the following tables and indicated literature references.

M1 (h) [1] = target: T3, M1 (h) (Homo sapiens, UniProt P11229); experiment: CEREP panel M1 (h) antagonist effect, intracellular Ca2+ fluorimetry; assay type: cell-based; settings: HCl salt tested; CHO cells, acetylcholine (10 nM)
T3 construct: expressed in transfected cells; host or cells: CHO cells
T3 sequence (P11229 1-460): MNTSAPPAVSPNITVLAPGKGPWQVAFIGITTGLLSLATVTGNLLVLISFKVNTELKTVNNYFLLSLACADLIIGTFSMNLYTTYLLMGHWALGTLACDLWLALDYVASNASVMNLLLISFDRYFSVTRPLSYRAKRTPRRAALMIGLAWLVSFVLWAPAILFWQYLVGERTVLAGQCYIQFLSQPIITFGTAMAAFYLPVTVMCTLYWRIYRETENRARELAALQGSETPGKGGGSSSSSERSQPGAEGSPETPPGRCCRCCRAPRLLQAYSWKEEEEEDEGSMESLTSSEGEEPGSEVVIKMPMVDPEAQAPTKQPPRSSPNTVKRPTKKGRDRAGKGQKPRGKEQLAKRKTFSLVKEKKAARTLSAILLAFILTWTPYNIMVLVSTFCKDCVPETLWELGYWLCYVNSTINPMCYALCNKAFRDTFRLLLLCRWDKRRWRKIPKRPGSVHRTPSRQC
From the text: as §4, §5

[2] = target: T4, Norepinephrine transporter (Homo sapiens, UniProt P23975); experiment: CEREP panel norepinephrine transporter uptake (h), [3H]NE incorporation; assay type: cell-based; settings: HCl salt tested; [3H]NE incorporation into cells
T4 construct: expressed in transfected cells
From the text: as §4, §5

M1 (h) [3] = target: T3, M1 (h); experiment: CEREP panel M1 (h) agonist effect, intracellular Ca2+ fluorimetry; assay type: cell-based; settings: HCl salt tested, CHO cells
From the text: as §4, §5

Chain of PKN1/PRK1 (Q16512 whole entry): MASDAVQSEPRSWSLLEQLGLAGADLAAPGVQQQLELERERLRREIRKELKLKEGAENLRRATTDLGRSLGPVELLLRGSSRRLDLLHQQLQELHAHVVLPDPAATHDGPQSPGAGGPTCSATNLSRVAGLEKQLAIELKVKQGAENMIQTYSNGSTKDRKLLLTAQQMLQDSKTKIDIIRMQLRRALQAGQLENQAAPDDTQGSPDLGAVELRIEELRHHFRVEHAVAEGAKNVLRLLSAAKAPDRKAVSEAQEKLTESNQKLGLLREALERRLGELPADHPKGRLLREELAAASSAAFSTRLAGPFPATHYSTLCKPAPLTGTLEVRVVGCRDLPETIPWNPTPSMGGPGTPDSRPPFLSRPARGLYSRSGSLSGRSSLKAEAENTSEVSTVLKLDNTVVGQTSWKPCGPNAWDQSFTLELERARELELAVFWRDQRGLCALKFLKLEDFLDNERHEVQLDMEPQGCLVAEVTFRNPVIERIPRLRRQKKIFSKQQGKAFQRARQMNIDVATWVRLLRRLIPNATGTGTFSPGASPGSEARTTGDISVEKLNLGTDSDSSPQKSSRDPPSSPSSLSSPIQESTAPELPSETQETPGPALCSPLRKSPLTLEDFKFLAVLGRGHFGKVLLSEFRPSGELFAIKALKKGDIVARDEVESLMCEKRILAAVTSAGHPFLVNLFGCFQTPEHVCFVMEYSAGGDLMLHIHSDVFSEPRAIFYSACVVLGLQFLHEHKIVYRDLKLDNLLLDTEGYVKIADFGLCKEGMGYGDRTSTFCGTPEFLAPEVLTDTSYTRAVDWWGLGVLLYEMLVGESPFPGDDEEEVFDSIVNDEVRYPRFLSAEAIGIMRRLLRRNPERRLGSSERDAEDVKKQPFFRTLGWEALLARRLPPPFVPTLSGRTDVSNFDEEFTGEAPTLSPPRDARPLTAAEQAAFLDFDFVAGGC
T4 sequence (P23975 whole entry): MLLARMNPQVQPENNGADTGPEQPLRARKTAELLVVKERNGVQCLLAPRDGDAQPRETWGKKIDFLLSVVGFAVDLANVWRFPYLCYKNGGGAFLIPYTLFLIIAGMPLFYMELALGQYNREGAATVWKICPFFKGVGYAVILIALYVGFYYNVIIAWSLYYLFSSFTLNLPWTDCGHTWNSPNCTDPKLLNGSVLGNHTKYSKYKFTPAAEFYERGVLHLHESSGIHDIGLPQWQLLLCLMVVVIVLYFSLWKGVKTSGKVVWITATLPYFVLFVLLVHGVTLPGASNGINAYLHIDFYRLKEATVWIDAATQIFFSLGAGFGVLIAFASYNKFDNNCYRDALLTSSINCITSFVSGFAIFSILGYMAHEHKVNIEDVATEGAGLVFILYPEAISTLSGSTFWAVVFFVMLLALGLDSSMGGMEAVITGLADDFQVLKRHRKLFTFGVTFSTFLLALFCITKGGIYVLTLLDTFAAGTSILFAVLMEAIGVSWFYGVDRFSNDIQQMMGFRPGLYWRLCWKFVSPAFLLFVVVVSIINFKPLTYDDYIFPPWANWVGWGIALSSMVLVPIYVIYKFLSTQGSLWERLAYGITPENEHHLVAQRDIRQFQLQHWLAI

Row | IC50 (PKN1/PRK1) | IC50 (PKCepsilon) | pIC50 (M2 (h)) | pIC50 (M1 (h) [1]) | pIC50 [2] | M1 (h) (agonist effect) (EC50) (M1 (h) [3]) | Structure (SMILES)
1 | 7.9 nM | 2.9 nM | 5.21 | 6.11 | 5.05 | Inactive | NCc1ccc(C(=O)Nc2ccncc2F)cc1-c1cccc(C(=O)Nc2ccc(SC[C@@H]3CCOC3=O)cc2)c1 [R-enantiomer]
2 | 8.5 nM | 6.7 nM | < 4.00 | < 4.52 | 4.68 | Inactive | NCc1ccc(C(=O)Nc2ccncc2F)cc1-c1cccc(C(=O)Nc2ccc(SC[C@H]3CCOC3=O)cc2)c1 [S-enantiomer]
